Here are results for eight compounds from ChEMBL document CHEMBL1150000, “Purine 2, 3-acyclonucleosides: Improved synthesis and antiparasitic actimity” (Bioorg Med Chem Lett, 1995).

Calls of active or inactive are those of the source. No cut-off for these calls is given here. A value given as a limit tells only on which side of the number the result lay.

In assay [1] the test system is Trypanosoma brucei. Nature of the assay: In vitro inhibitory activity against Trypanosoma brucei; Inactive. The assay is classed as functional, organism-based.
The subject of the next assay is Leishmania donovani. Briefly: In vitro inhibitory activity against Leishmania donovani; Inactive. Format: functional, organism-based.
Assay [2] concerns Trypanosoma brucei. Briefly: In vitro inhibitory activity against Trypanosoma brucei. The assay is classed as functional, organism-based.
A further assay relates to Trypanosoma cruzi. Briefly: In vitro inhibitory activity against growth of Trypanosoma cruzi at a concentration of 30 uM; 20-40%. The assay is classed as functional. The following applies: read-out: GI.

A word on the IC50: it is the concentration at which inhibition is half-maximal. A high value points to a need for much substance. Compound `OCC(CO)OC(CO)n1cnc2c(O)ncnc21` (stereo unspecified) returned a concentration for half-maximal inhibition (IC50) in the assay on Trypanosoma brucei [1] of no less than 100 µM. In the assay with Leishmania donovani, the outcome was inactive.

In the case of `CC(=O)OCC(COC(C)=O)OC(COC(C)=O)n1cnc2c(O)ncnc21` (stereo unspecified), the half-inhibitory concentration (IC50) in the assay on Trypanosoma brucei [2] amounted to 5.4 µM. In addition, the outcome with Leishmania donovani was inactive.

Compound `Nc1ncnc2c1ncn2C(CO)OC(CO)CO` (stereo unspecified) showed an IC50 in the assay on Trypanosoma brucei [1] of no less than 100 µM. The result with Leishmania donovani was inactive.

As to `CC(=O)OCCSCC(COC(C)=O)OC(COC(C)=O)n1cnc2c(N)ncnc21` (stereo unspecified), in the assay with Trypanosoma brucei [2], the IC50 turned out to be 5.3 µM. In the assay on Leishmania donovani, the result was inactive.

Turning to `Nc1ncnc2c1ncn2C(CO)OC(CO)CSCCO` (stereo unspecified), the IC50 with Trypanosoma brucei [1] is no less than 100 µM. Moreover, in the assay with Leishmania donovani, the outcome was inactive.

On to `CC(=O)OCC(CO)OC(COC(C)=O)n1cnc2c(N)ncnc21` (stereo unspecified), for which, in the assay on Trypanosoma brucei [2], the half-maximal inhibitory concentration (IC50) turned out to be 7 µM. The outcome in the assay with Leishmania donovani was inactive.

For the compound `Nc1ncnc2c1ncn2C(CO)OC(CO)CCl` (stereo unspecified), the inhibition of growth at 30 µM in the assay with Trypanosoma cruzi came to 40%. Moreover, the outcome in the assay with Leishmania donovani was inactive.

In the case of `CCC(CO)OC(CO)n1cnc2c(N)ncnc21` (stereo unspecified), the inhibition of growth at 30 µM in the assay with Trypanosoma cruzi stood at 40%. The result in the assay on Leishmania donovani was inactive.
